This assay deals with Delta-5-Desaturase (D5D) (Homo sapiens (Human), UniProt O60427). Put plainly: In vitro measurement of Delta-5-Desaturase inhibitory activity using DGLA-CoA and Arachidonyl-CoA mass spectrometric assays. The conditions noted are these: membrane preparations of D5D-overexpressing HEK293 6E cells; averaged over at least two independent runs. Type of assay: biochemical. The method in brief: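 Membranes from D5D-overexpressing HEK293 6E cells (10 μg/mL final) in Tris pH 7.5 with MgCl2, octyl glucoside and TCEP were mixed 1:1 with substrate solution (0.01 mM DGLA, 0.25 mM NADH, 0.25 mM ATP, 0.05 mM CoA) for 1 h at ambient temperature. RapidFire SPE-MS/MS MRM; IC50 by 4-parameter fit, ≥2 runs.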
Chain of Delta-5-Desaturase (D5D) (O60427 whole entry, species assumed): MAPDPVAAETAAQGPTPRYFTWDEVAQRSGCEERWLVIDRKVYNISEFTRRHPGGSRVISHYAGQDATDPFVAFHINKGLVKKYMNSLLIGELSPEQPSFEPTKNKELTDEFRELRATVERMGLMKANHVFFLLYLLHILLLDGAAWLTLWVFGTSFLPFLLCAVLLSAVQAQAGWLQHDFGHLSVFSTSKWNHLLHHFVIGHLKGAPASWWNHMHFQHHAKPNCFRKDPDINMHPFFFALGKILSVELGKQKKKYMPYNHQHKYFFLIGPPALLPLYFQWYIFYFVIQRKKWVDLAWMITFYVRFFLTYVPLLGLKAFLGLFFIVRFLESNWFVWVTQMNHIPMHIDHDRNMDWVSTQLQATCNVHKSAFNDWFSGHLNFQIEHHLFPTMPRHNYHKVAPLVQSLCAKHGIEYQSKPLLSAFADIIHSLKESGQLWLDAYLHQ

The term IC50 denotes the concentration that gives 50% inhibition. Read a low IC50 as inhibition by little substance. For `O=c1c(-c2cnn(CCC(F)(F)F)c2)c(C(F)(F)F)nc2n1CCOC2` [Example 39-38, 2-(trifluoromethyl)-3-[1-(3,3,3-trifluoropropyl)-1H-pyrazol-4-yl]-4H,6H,7H,9H-pyrimido[2,1-c][1,4]oxazin-4-one], inhibition was half-maximal at 1070 nM (IC50).
`COc1ccn2c(=O)c(-c3cnn(CC4CC(F)(F)C4)c3)c(C(F)(F)F)nc2c1` [Example 39-49, 3-{1-[(3,3-difluorocyclobutyl)methyl]-1H-pyrazol-4-yl}-8-methoxy-2-(trifluoromethyl)-4H-pyrido[1,2-a]pyrimidin-4-one] showed an IC50 of 4.6 nM.
Take `COc1ccn2c(=O)c(-n3cnc(CCC(F)(F)F)c3)c(C(F)(F)F)nc2c1` [Example 59, 8-Methoxy-2-(trifluoromethyl)-3-[4-(3,3,3-trifluoropropyl)-1H-imidazol-1-yl]-4H-pyrido[1,2-a]pyrimidin-4-one]: 365 nM corresponded to half-maximal inhibition (IC50).
As for `COc1cnn2c(=O)c(-c3cnn(CC(F)(F)C(F)(F)F)c3)c(C(F)(F)F)nc2c1` [Example 34, 8-Methoxy-3-[1-(2,2,3,3,3-pentafluoropropyl)-1H-pyrazol-4-yl]-2-(trifluoromethyl)-4H-pyrimido[1,2-b]pyridazin-4-one], it took 118 nM to reach half-maximal inhibition (IC50).
Molecule `O=c1c(-c2cnn(-c3ccc(F)cc3)c2)c(C(F)(F)F)nc2ccccn12` [Example 1-46, 3-(1-(4-fluorophenyl)-1H-pyrazol-4-yl)-2-(trifluoromethyl)-4H-pyrido[1,2-a]pyrimidin-4-one] yielded an IC50 of 36.4 nM.
The same measure for `COc1ccn2c(=O)c(-c3ccc(OCCF)cc3)c(C(F)(F)F)nc2n1` [Example 1-57, 3-(4-(2-fluoroethoxy)phenyl)-8-methoxy-2-(trifluoromethyl)-4H-pyrimido[1,2-a]pyrimidin-4-one]: 226 nM; for `CCCn1cc(-c2c(C(F)(F)F)nc3cc(OC)ccn3c2=O)cn1` [Example 1-76, 8-methoxy-3-(1-propyl-1H-pyrazol-4-yl)-2-(trifluoromethyl)-4H-pyrido[1,2-a]pyrimidin-4-one]: 17.6 nM.
`O=c1c(-c2cnc(OCC(F)(F)F)nc2)c(C(F)(F)F)nc2ccc(F)cn12` [Example 39-26, 7-fluoro-3-[2-(2,2,2-trifluoroethoxy)pyrimidin-5-yl]-2-(trifluoromethyl)-4H-pyrido[1,2-a]pyrimidin-4-one]: the half-maximal inhibitory concentration (IC50) is > 67000 nM.
`Cc1cc2nc(C(F)(F)F)c(-c3cnn(CCC(F)(F)F)c3)c(=O)n2cc1Cl` [Example 41-2, 7-chloro-8-methyl-2-(trifluoromethyl)-3-[1-(3,3,3-trifluoropropyl)-1H-pyrazol-4-yl]-4H-pyrido[1,2-a]pyrimidin-4-one]: the IC50 is 51.1 nM.
The same measure for `CN1CCn2c(nc(C(F)(F)F)c(-c3cnn(CC(F)(F)C(F)(F)F)c3)c2=O)C1` [Example 64, 8-Methyl-3-[1-(2,2,3,3,3-pentafluoropropyl)-1H-pyrazol-4-yl]-2-(trifluoromethyl)-4H,6H,7H,8H,9H-pyrimido[1,2-a]pyrazin-4-one]: 540 nM.
Regarding `C[S@@+]([O-])c1ccn2c(=O)c(-c3ccc(OCC(F)(F)F)cc3)c(C(F)(F)F)nc2c1` [Example 15-2, 8-((R)-methylsulfinyl)-3-(4-(2,2,2-trifluoroethoxy)phenyl)-2-(trifluoromethyl)-4H-pyrido[1,2-a]pyrimidin-4-one], the IC50 was determined as 562 nM.
With `COc1ccn2c(=O)c(-c3ccc(CCC#N)cc3)c(C(F)(F)F)nc2c1` [Example 1-1, 3-(4-(8-Methoxy-4-oxo-2-(trifluoromethyl)-4H-pyrido[1,2-a]pyrimidin-3-yl)phenyl)propanenitrile], the IC50 stood at 197 nM.
The same measure for `CCCn1cc(-c2c(C(F)(F)F)nc3ccccn3c2=O)cn1` [Example 5-4, 3-(1-propyl-1H-pyrazol-4-yl)-2-(trifluoromethyl)-4H-pyrido[1,2-a]pyrimidin-4-one]: 198 nM; for `[2H]C([2H])([2H])Oc1ccn2c(=O)c(-c3ccc(OCCF)cc3)c(C(F)(F)F)nc2n1` [Example 1-55, 3-(4-(2-fluoroethoxy)phenyl)-8-(methyloxy-d3)-2-(trifluoromethyl)-4H-pyrimido[1,2-a]pyrimidin-4-one]: 112 nM.
`Cc1cc2nc(C(F)(F)F)c(-c3cnn(CC(F)(F)C(F)(F)F)c3)c(=O)n2nc1C` [Example 39-46, 7,8-dimethyl-3-[1-(2,2,3,3,3-pentafluoropropyl)-1H-pyrazol-4-yl]-2-(trifluoromethyl)-4H-pyrimido[1,2-b]pyridazin-4-one] showed an IC50 of 6770 nM.
In turn, `O=c1ccn2c(=O)c(-c3ccc(OCC(F)(F)F)c(F)c3)c(C(F)(F)F)nc2[nH]1` [Example 10-2, 7-(3-fluoro-4-(2,2,2-trifluoroethoxy)phenyl)-8-(trifluoromethyl)-2H-pyrimido[1,2-a]pyrimidine-2,6(1H)-dione] showed an IC50 of 328 nM.
`CC[S@@+]([O-])c1ccn2c(=O)c(-c3ccc(OCC(F)(F)F)cc3)c(C(F)(F)F)nc2c1` [Example 15-8, 8-((R)-ethylsulfinyl)-3-(4-(2,2,2-trifluoroethoxy)phenyl)-2-(trifluoromethyl)-4H-pyrido[1,2-a]pyrimidin-4-one] had an IC50 of 185 nM.
Consider `COc1cc2nc(C(F)(F)F)c(-c3ccc(OCC(F)(F)F)cc3)c(=O)n2cc1F` [Example 39-57, 7-fluoro-8-methoxy-3-[4-(2,2,2-trifluoroethoxy)phenyl]-2-(trifluoromethyl)-4H-pyrido[1,2-a]pyrimidin-4-one], for which the IC50 was determined as 4.1 nM.
With `CNC(=O)c1ccn2c(=O)c(-c3ccc(OCC(F)(F)F)cc3)c(C(F)(F)F)nc2c1` [Example 12-1, N-Methyl-4-oxo-3-(4-(2,2,2-trifluoroethoxy)phenyl)-2-(trifluoromethyl)-4H-pyrido[1,2-a]pyrimidine-8-carboxamide], the IC50 came to 120 nM.
The same measure for `O=c1c(-c2ccc(OCC(F)(F)F)cn2)c(C(F)(F)F)nc2ccccn12` [Example 7-2, 3-(5-(2,2,2-trifluoroethoxy)-2-pyridinyl)-2-(trifluoromethyl)-4H-pyrido[1,2-a]pyrimidin-4-one]: 5230 nM; for `COc1ccn2c(=O)c(-c3ncn(CC(F)(F)C(F)(F)F)n3)c(C(F)(F)F)nc2c1` [Example 54, 8-Methoxy-3-[1-(2,2,3,3,3-pentafluoropropyl)-1H-1,2,4-triazol-3-yl]-2-(trifluoromethyl)-4H-pyrido[1,2-a]pyrimidin-4-one]: > 67000 nM.
With `COc1ccn2c(=O)c(-c3ccc(OC[C@H]4CC4(F)F)cc3)c(C(F)(F)F)nc2c1` [Example 1-83, 3-(4-(((1R)-2,2-Difluorocyclopropyl)methoxy)phenyl)-8-methoxy-2-(trifluoromethyl)-4H-pyrido[1,2-a]pyrimidin-4-one], the 50% inhibitory concentration (IC50) is 5.7 nM.
The same measure for `O=c1c(-c2ccc(OCC(F)(F)F)cc2)c(C(F)(F)F)nc2cc(C(F)(F)F)ccn12` [Example 4-1, 3-(4-(2,2,2-Trifluoroethoxy)phenyl)-2,8-bis(trifluoromethyl)-4H-pyrido[1,2-a]pyrimidin-4-one]: 5220 nM; for `O=c1c(-c2cnn(CC(F)(F)C(F)(F)F)c2)c(C(F)(F)F)nc2cc(OCF)cnn12` [Example 47, 8-(Fluoromethoxy)-3-[1-(2,2,3,3,3-pentafluoropropyl)-1H-pyrazol-4-yl]-2-(trifluoromethyl)-4H-pyrimido[1,2-b]pyridazin-4-one]: 33.5 nM.
For the molecule `COCc1ccn2c(=O)c(-c3cnn(CC(F)(F)C(F)(F)F)c3)c(C(F)(F)F)nc2c1` [Example 36, 8-(Methoxymethyl)-3-[1-(2,2,3,3,3-pentafluoropropyl)-1H-pyrazol-4-yl]-2-(trifluoromethyl)-4H-pyrido[1,2-a]pyrimidin-4-one], inhibition was half-maximal at 162 nM (IC50).
With `COc1ccn2c(=O)c(-c3cnc(OCC(F)(F)F)nc3)c(C(F)(F)F)nc2c1` [Example 37, 8-Methoxy-3-[2-(2,2,2-trifluoroethoxy)pyrimidin-5-yl]-2-(trifluoromethyl)-4H-pyrido[1,2-a]pyrimidin-4-one], half-maximal inhibition (IC50) was put at 87.6 nM.
`COc1ccn2c(=O)c(-c3cnn(-c4ccc(C(F)(F)F)cc4)c3)c(C(F)(F)F)nc2c1` [Example 1-71, 8-methoxy-2-(trifluoromethyl)-3-(1-(4-(trifluoromethyl)phenyl)-1H-pyrazol-4-yl)-4H-pyrido[1,2-a]pyrimidin-4-one] yielded an IC50 of 4880 nM.
The same measure for `CN(C)c1ccn2c(=O)c(-c3ccc(OCC(F)(F)F)cc3)c(C(F)(F)F)nc2c1` [Example 1-28, 8-(dimethylamino)-3-(4-(2,2,2-trifluoroethoxy)phenyl)-2-(trifluoromethyl)-4H-pyrido[1,2-a]pyrimidine-4-one]: 43.5 nM.
Regarding `C[S+]([O-])c1ccn2c(=O)c(-c3cnn(CC(F)(F)C(F)(F)F)c3)c(C(F)(F)F)nc2c1` (centres unmarked) [Example 15-4, 8-(methylsulfinyl)-3-(1-(2,2,3,3,3-pentafluoropropyl)-1H-pyrazol-4-yl)-2-(trifluoromethyl)-4H-pyrido[1,2-a]pyrimidin-4-one], the IC50 turned out to be 712 nM.
For the molecule `O=c1ccn2c(=O)c(-c3cnn(CC(F)(F)C(F)(F)F)c3)c(C(F)(F)F)nc2n1CF` [Example 68, 1-(Fluoromethyl)-7-[1-(2,2,3,3,3-pentafluoropropyl)-1H-pyrazol-4-yl]-8-(trifluoromethyl)-1H,2H,6H-[1,3]diazino[1,2-a]pyrimidine-2,6-dione], the IC50 was determined as 80.7 nM.
The molecule `CC[S@+]([O-])c1ccn2c(=O)c(-c3ccc(OCC(F)(F)F)cc3)c(C(F)(F)F)nc2c1` [Example 15-9, 8-((S)-ethylsulfinyl)-3-(4-(2,2,2-trifluoroethoxy)phenyl)-2-(trifluoromethyl)-4H-pyrido[1,2-a]pyrimidin-4-one] had an IC50 of 191 nM.
On to `O=c1ccn2c(=O)c(-c3cnn(CC(F)(F)C(F)(F)F)c3)c(C(F)(F)F)nc2n1CCl` [Example 65, 1-(Chloromethyl)-7-[1-(2,2,3,3,3-pentafluoropropyl)-1H-pyrazol-4-yl]-8-(trifluoromethyl)-1H,2H,6H-pyrimido[1,2-a][1,3]diazine-2,6-dione], for which half-maximal inhibition (IC50) was put at 90.5 nM.

The values above are taken from patent US12473289B2, “Heterocyclic compounds as delta-5 desaturase inhibitors and methods of use” (Amgen Inc., priority 2019, dated 2025).
